Experimental data as given in ChEMBL document CHEMBL1128253, “Synthesis and anti-HIV-1 activity of 4,5,6,7-tetrahydro-5-methylimidazo-[4,5,1-jk][1,4]benzodiazepin- 2(1H)-one (TlBO) derivatives. 4” (J Med Chem, 1995).

How the values were obtained:
[1] = tested on: Human immunodeficiency virus 1; experiment: Concentration required for 50% protection of MT-4 cells against the cytopathic effect of HIV-1; type: functional, organism-based; settings: Human immunodeficiency virus 1, MT4
[2] = tested on: MT4; experiment: Effective concentration of compound required to achieve 50% protection of MT-4 cells against the cytopathic effect of HIV-1; type: functional, cell-based; settings: Homo sapiens

C[C@H]1Cn2c(=O)[nH]c3ccc(N)c(c32)CN1CC1CC1
IC50 [1]: 849000 nM

C[C@H]1Cn2c(=O)[nH]c3cc(N)cc(c32)CN1CC1CC1
IC50 [1]: 60600 nM

CC(=O)Nc1ccc2nc(O)n3c2c1CN(CC1CC1)[C@@H](C)C3
IC50 [1]: > 796000 nM

COc1ccc2c3c1[nH]c(=O)n3C[C@H](C)N(CC=C(C)C)C2
IC50 [1]: 6630 nM

CCc1ccc2nc(O)n3c2c1CN(CC=C(C)C)[C@@H](C)C3
IC50 [1]: > 5940 nM

CC(C)=CCN1Cc2c(C(N)=O)ccc3[nH]c(=O)n(c23)C[C@@H]1C
IC50 [1]: 6360 nM

C[C@H]1Cn2c(=O)[nH]c3cc(N(C)C)cc(c32)CN1CC1CC1
IC50 [1]: 6650 nM

CCC(=CCN1Cc2c(C)ncc3nc(S)n(c23)CC1C)CC (stereo unspecified)
IC50 [1]: 243 nM

CCC(=CCN1Cc2c(C)ncc3nc(O)n(c23)CC1C)CC (stereo unspecified)
IC50 [1]: > 2000 nM

CC(C)=CCN1Cc2c(I)ccc3[nH]c(=O)n(c23)C[C@@H]1C
IC50 [1]: 88 nM

CCC(=CCN1Cc2cc(C(C)(C)C)cc3nc(O)n(c23)C[C@@H]1C)CC
IC50 [1]: 314 nM

CC(C)=CCN1Cc2cc(C(F)(F)F)cc3nc(S)n(c23)C[C@@H]1C
IC50 [1]: 485 nM

C[C@H]1Cn2c(=O)[nH]c3cc([N+](=O)[O-])cc(c32)CN1CC1CC1
IC50 [1]: 33400 nM

CC(C)=CCN1Cc2c(C#N)ccc3nc(O)n(c23)C[C@@H]1C
IC50 [1]: 1140 nM

CC(C)=CCN1Cc2cc(Cl)cc3[nH]c(=S)n(c23)C[C@@H]1C
IC50 [1]: 34 nM

CC(C)=CCN1Cc2cc(Cl)c(Cl)c3nc(S)n(c23)C[C@@H]1C
IC50 [1]: 25.5 nM

C#Cc1ccc2nc(O)n3c2c1CN(CC=C(C)C)[C@@H](C)C3
IC50 [1]: 438 nM

C[C@H]1Cn2c(=O)[nH]c3ccc(N(C)C)c(c32)CN1CC1CC1
IC50 [1]: 6650 nM

CSc1ccc2[nH]c(=S)n3c2c1CN(CC=C(C)C)[C@@H](C)C3
IC50 [1]: 5 nM

CC(C)=CCN1Cc2c(I)ccc3[nH]c(=S)n(c23)C[C@@H]1C
IC50 [1]: 47.4 nM

CC(=O)Nc1cc2c3c(c1)[nH]c(=O)n3C[C@H](C)N(CC1CC1)C2
IC50 [1]: 159000 nM

COc1ccc2c3c1[nH]c(=S)n3C[C@H](C)N(CC=C(C)C)C2
IC50 [1]: 4720 nM

CC(C)=CCN1Cc2c(C)ncc3nc(O)n(c23)CC1C (stereo unspecified)
IC50 [1]: 872000 nM

CC(C)=CCN1Cc2c(Br)ccc3nc(S)n(c23)C[C@@H]1C
IC50 [1]: 3 nM

Cc1ncc2nc(O)n3c2c1CN(CC1CC1)C(C)C3 (stereo unspecified)
IC50 [1]: 596000 nM

CCOc1ccc2[nH]c(=S)n3c2c1CN(CC=C(C)C)[C@@H](C)C3
IC50 [1]: 95.9 nM

CC(C)=CCN1Cc2ccc(Br)c3nc(S)n(c23)C[C@@H]1C
IC50 [1]: 1080 nM

COc1ccc2[nH]c(=S)n3c2c1CN(CC=C(C)C)[C@@H](C)C3
IC50 [1]: 33.9 nM

CC(C)=CCN1Cc2cccc3[nH]c(=S)n(c23)C[C@@H]1C
IC50 [2]: 44 nM

CC(C)=CCN1Cc2c(F)ccc3nc(S)n(c23)C[C@@H]1C
IC50 [1]: 5.8 nM

CC(C)=CCN1Cc2c(C=O)ccc3nc(S)n(c23)C[C@@H]1C
IC50 [1]: 188 nM

CC(C)=CCN1Cc2c(C)ccc3nc(O)n(c23)C[C@@H]1C
IC50 [1]: 989 nM

CC(C)=CCN1Cc2c(C#N)ccc3nc(S)n(c23)C[C@@H]1C
IC50 [1]: 56.3 nM

C#Cc1ccc2nc(S)n3c2c1CN(CC=C(C)C)[C@@H](C)C3
IC50 [1]: 29.6 nM

CC(C)=CCN1Cc2c(Br)ccc3nc(O)n(c23)C[C@@H]1C
IC50 [1]: 47.3 nM

CC(C)=CCN1Cc2cc(F)cc3nc(S)n(c23)C[C@@H]1C
IC50 [1]: 25 nM

CC(C)=CCN1Cc2cc(C(F)(F)F)cc3nc(O)n(c23)C[C@@H]1C
IC50 [1]: 5920 nM

CC(C)=CCN1Cc2c(C)ccc3nc(S)n(c23)C[C@@H]1C
IC50 [1]: 13.6 nM

C[C@H]1Cn2c(=S)[nH]c3cc([N+](=O)[O-])cc(c32)CN1CC1CC1
IC50 [1]: 2450 nM

CC(C)=CCN1Cc2c(Cl)ccc3[nH]c(=S)n(c23)C[C@@H]1C [TIVIRAPINE]
IC50 [1]: 4.3 nM

Cc1cn([C@H]2C[C@H](N=[N+]=[N-])[C@@H](CO)O2)c(=O)[nH]c1=O [ZIDOVUDINE]
IC50 [1]: 4.1 nM
